{
  "source": "patent US9388215B2",
  "about": "“Compositions and methods of using islet neogenesis peptides and analogs thereof” (SHENZHEN HIGHTIDE BIOPHARMACEUTICAL, LTD., priority 2013, dated 2016)",
  "key": {"ARIP cells": {"test_system": "ARIP cells", "test": "ARIP cell proliferation (BrdU ELISA / CellTiter-Glo)", "assay_type": "cell-based, rat", "conditions": "100 nM peptide; compared to INGAP scrambled peptide and INGAP-PP; FIG. 1", "procedure": "To measure cell proliferation, a bromodeoxyuridine (BrdU) ELISA assay was performed. Briefly, ARIP cells (ATCC (American Type Culture Collection), Manassas Va. USA), a rat pancreatic ductal cell line, were cultured in F-12K medium (Gibco-BRL, Gaithersburg, Md., USA) containing 10% fetal bovine serum (FBS; HyClone, Thermo Fisher Scientific Inc.; Waltham Mass. USA), 100 μg/ml streptomycin and 100 μg/ml penicillin in a cell incubator. ARIP cells were seeded into 96-well culture plates at 8000 or 0 (as blank control) cells/well in a volume of 50 μl cell culture medium and incubated overnight for the following experiments. On the second day, after replacing the medium with medium without serum, 50 μl serum-free cell culture medium containing test peptides at a series concentrations (final concentrations were 10 μM, 5 μM, 1 μM, 500 nM, 100 nM, 50 nM, 10 nM and 1 nM) were added to seeded cells. Medium without compound was added to negative control and background control wells. […] The absorbance at 450 nm (reference wavelength 690 nm) on an EnVision™ plate reader (Perkin Elmer, Boston Mass.) within 5 min after adding the stop solution was measured.\nTo test for cell viability, a CellTiter-Glo™ (CTG) assay (Promega, Madison Wis.) was performed. […] Luminescence signal was quantified on an EnVision™ plate reader after a 10 minute incubation at room temperature."}, "[1]": {"test": "Peptide stability in culture medium (F-12K, 37° C., HPLC)", "assay_type": "physicochemical", "conditions": "F-12K medium, 0.25 mg/mL, 0-72 hours, FIG. 2, FIG. 11", "procedure": "To determine the stability of peptides in culture medium, a certain amount of selected peptides was accurately weighed and dissolved in distilled water to 5 mg/mL as a stock solution. The stock solution was diluted to 0.25 mg/mL with F-12K medium (Gibco-BRL, Gaithersburg, Md., USA) as working solution. A volume of 100 μL of each working solution was transferred into individual sample vials. The sample vials were incubated in a 37° C. incubator for 0, 24, 48 and 72 hours before being analyzed and quantitated by HPLC. […]"}, "[2]": {"test_system": "STZ induced diabetic mice", "test": "Efficacy in streptozotocin (STZ) induced diabetic mice model", "assay_type": "in vivo, mouse", "procedure": "After acclimatization in the animal facility for one week, 6-8 weeks old C57BL/6J mice were administered low dose STZ at 40 mg/kg in citrate buffer for 5 consecutive days to establish a T1D animal model. Mice with blood glucose greater than 16.7 mmol/L at 5 days post last STZ injection were included in the study. These mice were then treated with INGAP-PP (Peptide 1) or Peptide 7 at the doses of 5 mg/kg (2.5 mg/kg, bid (twice a day)) or 25 mg/kg (12.5 mg/kg, bid) for 20 days before sacrifices. Two additional groups of diabetic mice were administered either saline or a peptide (Peptide 3) composed of a scrambled sequence of amino acids from Peptide 1 as control groups. Blood glucose and insulin levels were measured, and 20 days post the last dosing of test agents, an oral glucose tolerance test (OGTT) was performed in 6 hour fasted animals to determine the effect of Peptide 1 and Peptide 7. Blood samples obtained from the tail cut for glucose determination were detected with an ACCU-CHEK™ glucometer (Roche, ACCU-CHEK® Active), and insulin levels were determined with Rat/Mouse Insulin Elisa kit (Millipore, Billerica, Mass. USA). For the OGTT, after the measurement of the basal glucose concentration (T=−30 min), mice received an oral glucose challenge at 2 g/kg and glucose values were determined by glucometer at 0, 15, 30, 60, 90 and 120 min."}, "normal C57BL/6J mice": {"test_system": "normal C57BL/6J mice", "test": "Induction of small β-cell clusters in normal C57BL/6J mice (islet size distribution)", "assay_type": "in vivo, mouse", "procedure": "After a 1-week acclimation, C57BL/6J female mice were randomly divided into 4 groups. The two control groups received either 10 mL/kg sterile normal saline (n=4) or scrambled peptide (Peptide 3, 25 mg/kg) (n=5) via subcutaneous injection for 10 days. The other two groups received INGAP-PP (Peptide 1) or INGAP-PP analog Peptide 7 at a dose of 25 mg/kg per day respectively (n=7 per group) for the same period. Body weight and 6 hour fasting blood glucose were measured before treatment and after the last dosing of treatment. Plasma and pancreatic insulin were also measured at the end of the study. On day 11, the pancreas was removed from each animal, cleared of fat and lymph nodes, weighed, and fixed in 10% neutral buffered formalin (NBF) for no longer than 24 hours before processing for morphometric analysis.\nImmunohistochemistry analysis was used to determine pancreatic islet size distribution."}},
  "data": [
    {"substance": "H-IGLHDPSHGTLPAGS-OH [Peptide 7, H-IGLHDPSHGTLPAGS-OH]", "values": [
      {"measurement": "percentage increase in cell number (ARIP cell proliferation)", "setting": "ARIP cells", "result": "significantly higher percentage increase in cell number"},
      {"measurement": "stability in culture medium", "setting": "[1]", "result": "significantly more stable than INGAP-PP peptide in culture medium"},
      {"measurement": "effect on body weight or pancreas weight", "setting": "[2]; 5 mg/kg or 25 mg/kg for 20 days", "result": "did not affect body weight or pancreas weight"},
      {"measurement": "plasma insulin levels vs saline controls", "setting": "[2]; 25 mg/kg dose group, end of the 20-day period, FIG. 6B", "result": "significantly different from saline controls and almost restored to the level of the naive group"},
      {"measurement": "glucose tolerance (OGTT, AUC of glucose)", "setting": "[2]; FIG. 6C", "result": "improved glucose tolerance"},
      {"measurement": "blood glucose levels vs saline control group", "setting": "[2]; day 21 of treatment, FIG. 6A", "result": "Significant differences in blood glucose levels"},
      {"measurement": "number of islets, islet size (Log [μm^2]) ranging from 2.1 to 0.7", "setting": "normal C57BL/6J mice; normal female C57BL/6J mice, 25 mg/kg per day, 10 days, versus naive/control group, FIG. 7", "result": "numbers increased significantly"},
      {"measurement": "effect on body weight, blood glucose, plasma insulin, pancreas insulin, pancreas weight", "setting": "normal C57BL/6J mice; normal mice, 25 mg/kg per day sc for 10 days, compared to saline group", "result": "did not affect body weight, blood glucose, plasma insulin, pancreas insulin, or pancreas weight"}
    ]}
  ]
}
